Drawing on ChEMBL document CHEMBL3991601, “The target landscape of clinical kinase drugs” (Science, 2017), this text covers Kd for nine molecules.

In test [1] the target is Protein kinase C theta type (Homo sapiens, UniProt Q04759).
Test [2] concerns the target Rho-associated protein kinase 1 (Homo sapiens, UniProt Q13464).
Test [3] deals with Dual specificity mitogen-activated protein kinase kinase 1 (Homo sapiens, UniProt Q02750).
Test [4] deals with Serine/threonine-protein kinase pim-2 (Homo sapiens, UniProt Q9P1W9).
For test [5], the target named is Hepatocyte growth factor receptor (Homo sapiens, UniProt P08581).
Test [6] addresses High affinity nerve growth factor receptor (Homo sapiens, UniProt P04629).
Test [7] has as its target Mitogen-activated protein kinase kinase kinase 1 (Homo sapiens, UniProt Q13233).
For test [8], the target named is Cyclin-dependent kinase 17 (Homo sapiens, UniProt Q00537).
For test [9], the target named is Choline-phosphate cytidylyltransferase A (Homo sapiens, UniProt P49585).
Test [10] has as its target T1, Serine/threonine-protein kinase 4 (Homo sapiens, UniProt Q13043).
T1 sequence (Q13043 whole entry): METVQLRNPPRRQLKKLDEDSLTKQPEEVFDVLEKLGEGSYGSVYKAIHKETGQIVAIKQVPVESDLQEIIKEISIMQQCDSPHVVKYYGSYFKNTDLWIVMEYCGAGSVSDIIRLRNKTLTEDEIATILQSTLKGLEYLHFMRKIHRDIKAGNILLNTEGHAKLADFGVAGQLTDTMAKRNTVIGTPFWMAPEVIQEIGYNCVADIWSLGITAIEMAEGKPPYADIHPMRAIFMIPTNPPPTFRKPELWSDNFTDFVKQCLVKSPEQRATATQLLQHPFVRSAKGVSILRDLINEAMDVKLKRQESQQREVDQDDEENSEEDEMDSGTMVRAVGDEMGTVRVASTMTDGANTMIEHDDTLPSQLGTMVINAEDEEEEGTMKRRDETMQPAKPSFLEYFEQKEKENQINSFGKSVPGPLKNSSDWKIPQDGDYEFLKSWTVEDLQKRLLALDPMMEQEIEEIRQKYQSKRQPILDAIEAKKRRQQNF

The target of test [11] is Ephrin type-A receptor 2 (Homo sapiens, UniProt P29317).
Test [12] concerns the target T2, Receptor-type tyrosine-protein kinase FLT3 (Homo sapiens, UniProt P36888).
T2 sequence (P36888 whole entry): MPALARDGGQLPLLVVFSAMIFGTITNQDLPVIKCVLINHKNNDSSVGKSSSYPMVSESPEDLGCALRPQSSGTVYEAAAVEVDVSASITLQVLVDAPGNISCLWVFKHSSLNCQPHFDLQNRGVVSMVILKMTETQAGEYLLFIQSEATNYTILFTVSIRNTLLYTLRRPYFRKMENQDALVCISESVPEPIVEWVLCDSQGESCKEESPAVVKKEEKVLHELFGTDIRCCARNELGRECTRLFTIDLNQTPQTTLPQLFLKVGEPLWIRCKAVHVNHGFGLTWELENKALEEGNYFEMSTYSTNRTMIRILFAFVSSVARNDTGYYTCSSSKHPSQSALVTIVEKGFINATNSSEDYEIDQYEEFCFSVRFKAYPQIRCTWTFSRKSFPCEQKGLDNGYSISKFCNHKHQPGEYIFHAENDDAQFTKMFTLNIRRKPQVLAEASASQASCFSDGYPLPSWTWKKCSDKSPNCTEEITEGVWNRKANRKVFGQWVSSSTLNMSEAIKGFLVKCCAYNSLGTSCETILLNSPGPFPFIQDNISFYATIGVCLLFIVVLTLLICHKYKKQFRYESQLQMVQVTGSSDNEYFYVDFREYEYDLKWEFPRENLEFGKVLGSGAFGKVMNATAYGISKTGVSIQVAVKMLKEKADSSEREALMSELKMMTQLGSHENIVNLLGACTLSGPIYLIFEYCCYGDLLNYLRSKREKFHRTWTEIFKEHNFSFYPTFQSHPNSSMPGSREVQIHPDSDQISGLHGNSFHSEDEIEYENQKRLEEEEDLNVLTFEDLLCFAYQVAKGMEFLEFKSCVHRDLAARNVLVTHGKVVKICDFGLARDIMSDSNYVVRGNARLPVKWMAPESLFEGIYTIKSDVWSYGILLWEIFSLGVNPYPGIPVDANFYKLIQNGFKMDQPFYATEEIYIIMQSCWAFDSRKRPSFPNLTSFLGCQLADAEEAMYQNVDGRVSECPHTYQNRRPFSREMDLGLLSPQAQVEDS

For test [13], the target named is T3, Mitogen-activated protein kinase kinase kinase 3 (Homo sapiens, UniProt Q99759).
T3 sequence (Q99759 whole entry): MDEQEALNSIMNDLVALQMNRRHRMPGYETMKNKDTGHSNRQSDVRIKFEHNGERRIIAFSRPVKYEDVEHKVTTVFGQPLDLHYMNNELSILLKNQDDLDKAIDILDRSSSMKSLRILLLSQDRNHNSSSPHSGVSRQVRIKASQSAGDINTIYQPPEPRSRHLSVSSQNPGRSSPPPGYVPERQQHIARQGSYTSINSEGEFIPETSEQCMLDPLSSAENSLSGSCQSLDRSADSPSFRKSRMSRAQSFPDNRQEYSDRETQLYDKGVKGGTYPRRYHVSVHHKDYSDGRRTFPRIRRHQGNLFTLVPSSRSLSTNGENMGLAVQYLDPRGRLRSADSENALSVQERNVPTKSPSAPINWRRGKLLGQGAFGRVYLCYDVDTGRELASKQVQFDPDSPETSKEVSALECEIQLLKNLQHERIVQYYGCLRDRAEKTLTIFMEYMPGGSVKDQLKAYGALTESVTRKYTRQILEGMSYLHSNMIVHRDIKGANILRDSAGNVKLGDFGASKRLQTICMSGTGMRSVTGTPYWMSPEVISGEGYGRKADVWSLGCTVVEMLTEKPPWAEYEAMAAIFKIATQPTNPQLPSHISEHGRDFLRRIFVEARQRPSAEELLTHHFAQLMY

The target in test [14] is Dual specificity protein kinase CLK3 (Homo sapiens, UniProt P49761). In kind it is subcellular, K-562, COLO 205, SK-N-BE(2) and MV-4-11, Cell lysate. To be noted: read-out: Kd apparent.
For test [15], the target named is Uncharacterized aarF domain-containing protein kinase 5 (Homo sapiens, UniProt Q3MIX3).

Activity calls are given as the source filed them. Rule as the data show it, for most assays here: actives have a measured Kd and inactives only a lower limit.
Also: in the data inactive means no Kd found up to 30 µM.

Rho-associated protein kinase 1, sequence (Q13464 whole entry): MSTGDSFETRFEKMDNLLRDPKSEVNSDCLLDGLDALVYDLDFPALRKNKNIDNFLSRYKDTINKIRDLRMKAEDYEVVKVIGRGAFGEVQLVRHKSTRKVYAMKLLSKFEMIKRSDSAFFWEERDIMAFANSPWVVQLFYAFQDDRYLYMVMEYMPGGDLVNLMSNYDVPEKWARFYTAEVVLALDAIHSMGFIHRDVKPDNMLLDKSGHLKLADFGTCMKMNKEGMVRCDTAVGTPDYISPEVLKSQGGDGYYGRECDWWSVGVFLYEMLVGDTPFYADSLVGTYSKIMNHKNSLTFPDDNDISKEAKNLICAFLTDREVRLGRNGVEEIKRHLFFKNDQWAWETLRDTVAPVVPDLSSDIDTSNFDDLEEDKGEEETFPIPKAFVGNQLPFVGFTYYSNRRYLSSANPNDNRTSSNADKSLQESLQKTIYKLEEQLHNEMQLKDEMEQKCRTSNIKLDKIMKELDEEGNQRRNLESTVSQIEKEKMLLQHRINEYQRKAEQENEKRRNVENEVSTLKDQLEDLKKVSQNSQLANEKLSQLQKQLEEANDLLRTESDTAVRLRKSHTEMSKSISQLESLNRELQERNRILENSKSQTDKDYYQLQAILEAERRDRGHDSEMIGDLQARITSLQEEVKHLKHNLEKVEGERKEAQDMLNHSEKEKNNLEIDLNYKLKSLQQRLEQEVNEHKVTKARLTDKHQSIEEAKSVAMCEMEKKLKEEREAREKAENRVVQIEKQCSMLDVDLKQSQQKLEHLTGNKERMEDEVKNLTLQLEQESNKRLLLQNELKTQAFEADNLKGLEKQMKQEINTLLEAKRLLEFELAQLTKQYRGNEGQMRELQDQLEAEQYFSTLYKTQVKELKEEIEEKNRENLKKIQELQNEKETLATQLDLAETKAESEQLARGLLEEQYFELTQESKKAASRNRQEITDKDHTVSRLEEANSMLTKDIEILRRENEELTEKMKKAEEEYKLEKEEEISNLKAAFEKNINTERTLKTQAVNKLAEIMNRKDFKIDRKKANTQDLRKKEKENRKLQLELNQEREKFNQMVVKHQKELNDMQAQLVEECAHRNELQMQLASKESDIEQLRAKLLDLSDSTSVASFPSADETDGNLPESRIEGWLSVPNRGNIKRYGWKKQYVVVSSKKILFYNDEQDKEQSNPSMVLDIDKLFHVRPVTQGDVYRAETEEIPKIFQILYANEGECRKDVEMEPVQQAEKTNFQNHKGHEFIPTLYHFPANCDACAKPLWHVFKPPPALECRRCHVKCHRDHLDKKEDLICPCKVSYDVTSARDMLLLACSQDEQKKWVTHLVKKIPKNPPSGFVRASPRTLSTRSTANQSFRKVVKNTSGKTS
Dual specificity mitogen-activated protein kinase kinase 1, sequence (Q02750 whole entry): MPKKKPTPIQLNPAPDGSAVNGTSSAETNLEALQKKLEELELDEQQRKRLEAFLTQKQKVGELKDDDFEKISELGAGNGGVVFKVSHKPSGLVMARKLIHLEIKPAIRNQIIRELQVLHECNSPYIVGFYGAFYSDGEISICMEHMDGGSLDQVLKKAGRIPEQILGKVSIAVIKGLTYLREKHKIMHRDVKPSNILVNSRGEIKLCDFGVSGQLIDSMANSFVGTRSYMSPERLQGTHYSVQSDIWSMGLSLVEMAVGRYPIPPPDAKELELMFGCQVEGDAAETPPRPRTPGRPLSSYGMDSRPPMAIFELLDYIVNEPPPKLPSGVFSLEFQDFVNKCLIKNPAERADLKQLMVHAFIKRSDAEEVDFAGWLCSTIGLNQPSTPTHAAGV
Mitogen-activated protein kinase kinase kinase 1, sequence (Q13233 whole entry): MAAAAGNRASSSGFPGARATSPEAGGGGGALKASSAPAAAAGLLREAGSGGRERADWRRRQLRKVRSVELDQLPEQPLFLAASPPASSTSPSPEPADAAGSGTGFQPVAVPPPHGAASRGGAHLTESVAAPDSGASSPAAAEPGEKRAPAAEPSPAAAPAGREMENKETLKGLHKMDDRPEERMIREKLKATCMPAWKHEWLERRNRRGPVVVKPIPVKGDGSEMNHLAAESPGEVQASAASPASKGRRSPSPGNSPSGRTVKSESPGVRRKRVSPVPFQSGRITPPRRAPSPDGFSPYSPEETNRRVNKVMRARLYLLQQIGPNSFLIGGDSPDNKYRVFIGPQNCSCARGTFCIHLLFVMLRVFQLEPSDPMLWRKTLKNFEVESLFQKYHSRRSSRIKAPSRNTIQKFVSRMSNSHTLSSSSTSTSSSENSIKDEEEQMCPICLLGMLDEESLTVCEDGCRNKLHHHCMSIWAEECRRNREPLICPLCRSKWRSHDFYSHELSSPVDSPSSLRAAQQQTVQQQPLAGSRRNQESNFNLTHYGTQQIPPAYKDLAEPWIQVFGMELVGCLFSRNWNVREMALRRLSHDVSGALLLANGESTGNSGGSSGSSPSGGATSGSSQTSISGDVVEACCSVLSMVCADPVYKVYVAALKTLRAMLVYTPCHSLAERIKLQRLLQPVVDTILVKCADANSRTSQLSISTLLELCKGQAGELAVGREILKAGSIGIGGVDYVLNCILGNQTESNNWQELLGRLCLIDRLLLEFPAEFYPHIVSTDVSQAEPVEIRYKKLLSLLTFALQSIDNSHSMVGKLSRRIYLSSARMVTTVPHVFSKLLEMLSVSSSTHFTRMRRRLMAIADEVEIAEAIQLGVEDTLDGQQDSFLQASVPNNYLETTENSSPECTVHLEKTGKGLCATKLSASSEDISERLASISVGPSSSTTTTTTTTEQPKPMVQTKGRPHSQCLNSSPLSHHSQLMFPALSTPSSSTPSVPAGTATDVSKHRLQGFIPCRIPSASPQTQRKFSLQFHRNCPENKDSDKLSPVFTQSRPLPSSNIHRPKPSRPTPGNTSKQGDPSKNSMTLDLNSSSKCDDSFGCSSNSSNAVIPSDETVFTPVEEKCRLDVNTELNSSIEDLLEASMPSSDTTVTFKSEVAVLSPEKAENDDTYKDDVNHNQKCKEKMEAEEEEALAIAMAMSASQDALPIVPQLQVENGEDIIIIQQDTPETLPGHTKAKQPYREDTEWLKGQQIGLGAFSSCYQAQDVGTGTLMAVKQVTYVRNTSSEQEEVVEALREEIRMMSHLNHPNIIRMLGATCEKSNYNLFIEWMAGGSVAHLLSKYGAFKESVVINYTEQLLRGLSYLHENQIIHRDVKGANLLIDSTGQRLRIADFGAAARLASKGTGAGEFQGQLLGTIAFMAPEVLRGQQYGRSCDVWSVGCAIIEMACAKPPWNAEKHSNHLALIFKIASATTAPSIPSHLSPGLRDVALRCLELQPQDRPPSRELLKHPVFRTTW
Ephrin type-A receptor 2, sequence (P29317 whole entry): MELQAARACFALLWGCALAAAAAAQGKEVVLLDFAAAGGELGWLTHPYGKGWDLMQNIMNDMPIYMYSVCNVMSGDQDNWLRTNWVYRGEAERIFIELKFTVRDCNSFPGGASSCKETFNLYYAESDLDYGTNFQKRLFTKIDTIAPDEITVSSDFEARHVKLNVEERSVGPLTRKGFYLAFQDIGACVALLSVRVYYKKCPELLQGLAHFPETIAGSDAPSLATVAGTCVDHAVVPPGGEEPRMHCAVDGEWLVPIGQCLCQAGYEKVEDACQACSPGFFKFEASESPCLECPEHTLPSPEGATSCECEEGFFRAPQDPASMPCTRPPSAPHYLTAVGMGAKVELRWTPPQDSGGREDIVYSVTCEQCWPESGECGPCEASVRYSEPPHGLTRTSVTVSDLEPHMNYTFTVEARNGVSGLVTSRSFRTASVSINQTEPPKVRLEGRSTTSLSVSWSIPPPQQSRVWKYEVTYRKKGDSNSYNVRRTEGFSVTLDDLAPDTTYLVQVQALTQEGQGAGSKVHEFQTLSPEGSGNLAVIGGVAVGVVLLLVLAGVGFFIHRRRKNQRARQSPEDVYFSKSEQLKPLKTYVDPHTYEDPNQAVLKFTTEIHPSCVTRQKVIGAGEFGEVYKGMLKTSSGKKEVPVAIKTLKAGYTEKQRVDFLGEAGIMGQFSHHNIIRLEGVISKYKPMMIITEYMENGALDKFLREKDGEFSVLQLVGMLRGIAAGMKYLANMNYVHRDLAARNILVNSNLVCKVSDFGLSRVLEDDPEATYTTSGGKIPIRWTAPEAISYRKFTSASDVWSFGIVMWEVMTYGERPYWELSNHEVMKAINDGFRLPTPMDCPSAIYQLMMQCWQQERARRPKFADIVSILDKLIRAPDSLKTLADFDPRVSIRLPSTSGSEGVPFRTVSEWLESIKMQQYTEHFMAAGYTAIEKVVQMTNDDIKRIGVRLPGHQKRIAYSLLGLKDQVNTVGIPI
Uncharacterized aarF domain-containing protein kinase 5, sequence (Q3MIX3 whole entry, the tested form may be a part): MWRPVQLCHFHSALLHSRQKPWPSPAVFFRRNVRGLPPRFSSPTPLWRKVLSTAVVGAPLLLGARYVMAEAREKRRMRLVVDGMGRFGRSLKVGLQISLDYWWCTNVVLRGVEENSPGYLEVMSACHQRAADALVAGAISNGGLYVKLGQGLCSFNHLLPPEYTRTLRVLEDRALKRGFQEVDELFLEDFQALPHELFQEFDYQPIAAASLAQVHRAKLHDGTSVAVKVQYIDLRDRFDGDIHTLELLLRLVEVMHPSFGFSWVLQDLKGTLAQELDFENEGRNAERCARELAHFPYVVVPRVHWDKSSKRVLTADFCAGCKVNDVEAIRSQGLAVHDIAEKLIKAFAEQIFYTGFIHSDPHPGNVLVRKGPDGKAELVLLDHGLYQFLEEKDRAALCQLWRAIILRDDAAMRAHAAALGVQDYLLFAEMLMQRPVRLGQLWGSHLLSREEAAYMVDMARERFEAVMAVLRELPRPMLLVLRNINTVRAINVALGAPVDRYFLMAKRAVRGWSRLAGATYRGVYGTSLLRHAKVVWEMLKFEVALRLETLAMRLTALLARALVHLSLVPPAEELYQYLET

Take `Cc1cc(Nc2nc(N[C@@H](C)c3ncc(F)cn3)ncc2Cl)n[nH]1` [AZD-1480]: the Kd in test [1], in [2], in test [3], in test [4], in test [5] and in test [6] was > 30 µM (inactive) each time. Besides, the Kd was > 30 µM (inactive) in [7]; > 30 µM (inactive) in [8]; > 30 µM (inactive) in test [9]; 0.861 µM (active) in test [10]; > 30 µM (inactive) in test [11]; 1.68 µM (active) in [12]. Also, the Kd in test [13] and in [14] was > 30 µM (inactive) each time.
As to `Cc1ccc(C(=O)Nc2ccc(Oc3cc4cnn(C)c4cc3-c3cn[nH]c3)c(F)c2)c(=O)n1-c1ccc(F)cc1` [MERESTINIB], the Kd in test [1] was > 30 µM (inactive); in test [2] it was > 30 µM (inactive); in test [3], > 30 µM (inactive); in test [4], > 30 µM (inactive); in test [15], > 30 µM (inactive); in [6], 1.03 µM. Besides, the Kd was > 30 µM (inactive) in [7]; > 30 µM (inactive) in test [8]; > 30 µM (inactive) in test [9]; > 30 µM (inactive) in [10]; > 30 µM (inactive) in test [11]; 0.309 µM (active) in [12]. In addition, the Kd in test [13] and in test [14] was > 30 µM (inactive) in each case.
Turning to `CNC(=O)c1cccc(-c2ccc3c(N4CCOC[C@@H]4C)nc(N4CCOC[C@@H]4C)nc3n2)c1` [VISTUSERTIB], the Kd in test [1], in [2], in [3], in [15], in test [5] and in test [6] was > 30 µM (inactive) throughout. Also, the Kd in [7], in [8], in test [9], in [10], in [11] and in test [12] was > 30 µM (inactive) throughout. The Kd in test [13] and in test [14] was > 30 µM (inactive) in each case.
With `O=S(=O)(c1cccc2cnccc12)N1CCCNCC1` [FASUDIL], the Kd in test [15], in test [7], in test [8], in test [9], in test [10] and in test [13] was > 30 µM (inactive) each time. In addition, the Kd in [14] was > 30 µM (inactive).
For the molecule `CCN1CCN(Cc2ccc(Nc3ncc(F)c(-c4cc(F)c5nc(C)n(C(C)C)c5c4)n3)nc2)CC1` [ABEMACICLIB], the Kd in test [1], in test [2], in test [3], in test [15], in test [5] and in test [6] was > 30 µM (inactive) each time. In addition, the Kd in [7], in test [9], in [10], in test [11], in test [13] and in [14] was > 30 µM (inactive) throughout.
On to `Cc1c(Cn2c(C)nc3c(C(=O)O)cc(N4CCOCC4)cc32)cccc1C(F)(F)F` [GSK-2636771], for which the Kd in test [1], in test [2], in test [3], in [5], in test [6] and in test [7] was > 30 µM (inactive) in each case. Also, the Kd in test [8], in test [9], in test [10], in test [11], in test [12] and in [13] was > 30 µM (inactive) throughout. In addition, the Kd in test [14] was > 30 µM (inactive).
Take `O=C(NC[C@H](O)CO)c1ccncc1Nc1ccc(I)cc1F` [PIMASERTIB]: the Kd in test [1], in test [2], in test [5], in [6], in test [7] and in test [8] was > 30 µM (inactive) each time. Besides, the Kd in [9], in test [10], in test [11], in [12], in test [13] and in [14] was > 30 µM (inactive) in each case.
Take `COc1cc(Nc2ncc(F)c(Nc3ccc4c(n3)N(COP(=O)(O)O)C(=O)C(C)(C)O4)n2)cc(OC)c1OC` [FOSTAMATINIB]: the Kd in test [1], in test [2], in [3], in test [15], in test [5] and in [6] was > 30 µM (inactive) in each case. Besides, the Kd in test [7] was > 30 µM (inactive); in [8], > 30 µM (inactive); in [9] it was > 30 µM (inactive); in test [10] it was > 30 µM (inactive); in test [11], > 30 µM (inactive); in test [12] it was 0.843 µM (active). Besides, the Kd in test [13] and in test [14] was > 30 µM (inactive) in each case.
As for `COc1ccc2c(OCc3nnc4ccc(-c5ccccc5)nn34)ccnc2c1` [AMG-208], the Kd in test [1] was > 30 µM (inactive); in [2], > 30 µM (inactive); in [3], > 30 µM (inactive); in test [15], > 30 µM (inactive); in [5] it was 0.028 µM (active); in test [7], > 30 µM (inactive). In addition, the Kd in [8], in test [9], in test [10], in test [11], in test [12] and in [13] was > 30 µM (inactive) each time. Further, in test [14], the Kd was > 30 µM (inactive).
